From patent publication US7223759B2, “Antibacterial 3,5-diaminopiperidine-substituted aromatic and heteroaromatic compounds” (Anadys Pharmaceuticals, Inc., priority 2003, dated 2007)

These molecules were tested on Escherichia coli (ATCC25922) or Staphylococcus aureus (ATCC25923) (assay: Antibacterial MIC, microdilution method in Mueller-Hinton medium). Conditions: Escherichia coli, 18 h, MIC in E. coli or S. aureus; two-fold serial dilutions 64 to 0.5 μg/ml in duplicate; 18 hours of incubation at 35° C.; read-out: Potency (MIC).
Type: cell-based
Method in brief: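 Read after 18 h incubation at 35° C, MIC is the lowest compound level that blocked growth. Compounds were tested in duplicate over 64–0.5 μg/ml two-fold dilutions using Mueller-Hinton microdilution per NCCLS standard.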

| MIC | Structure (SMILES) |
| --- | --- |
| < 64 µg/mL | Cl.Nc1ccc(S(=O)(=O)Nc2ccc(Nc3nc(N4CCCCC4)nc(N4CCCCC4)n3)cc2O)cc1 [N-[4-(4-amino-benzenesulfonylamino)-3-hydroxy-phenyl]-4,6-Bis-((3R,5S)-33,5-diamino-piperidin-1-yl)-[1,3,5]triazine-2-amine] |
| > 64 µg/mL | NC1CCN(c2nc(N3C[C@H](N)C[C@H](N)C3)nc(N3C[C@H](N)C[C@H](N)C3)n2)CC1 [1-(4,6-Bis-((3R,5S)-3,5-diamino-piperidin-1-yl)-[1,3,5]triazin-2-yl)-piperidine-3-carboxylic aciddiethylamide] |
| > 64 µg/mL | Cl.NS(=O)(=O)c1ccc(NC(=O)c2ccc(Nc3nc(N4CCCCC4)nc(N4CCCCC4)n3)cc2O)cc1 [N-[3-hydroxy-4-{4-sulfamoyl-phenylcarbamoyl)-phenyl]-4,6-Bis-((3R,5S)-3,5-diamino-piperidin-1-yl)-[1,3,5]triazine-22-amine] |
| > 64 µg/mL | N[C@@H]1C[C@H](N)CN(c2nc(Nc3cccc(OC(F)(F)F)c3)nc(N3C[C@H](N)C[C@H](N)C3)n2)C1 [N-(3-trifluoromethoxy-phenyl)-4,6-Bis-((3R,5S)-3,5-diamino-piperidin-1-yl)-[1,3,5]triazine-2-amine] |
| < 64 µg/mL | Cl.O=C(Nc1ccc(Nc2nc(NCCCn3ccnc3)nc(N3CCCCC3)n2)cc1O)c1ccc(Cl)cc1 |
| > 64 µg/mL | Cc1cc(NC(=O)c2ccccc2)c(Cl)cc1Nc1nc(N2CCCCC2)nc(N2CCCCC2)n1 [N-(4-benzoylamino-5-chloro-23-methyl-phenyl)-4,6-Bis((3R,5S)-3,5-diamino-piperidin-1-yl)-[1,3,5]triazine-2-amine] |
| > 64 µg/mL | Cl.Oc1cccc(C2CCN(c3nc(N4CCCCC4)nc(N4CCCCC4)n3)CC2)c1 [3-[1-(4,6-Bis-((3R,5S)-3,5-diamino-piperidin-1-yl)-[1,3,5]triazin-2-yl)-piperidin-4-yl]-phenyl] |
| > 64 µg/mL | Cl.NC(=O)c1ccc(Nc2nc(N3C[C@H](N)C[C@H](N)C3)nc(N3C[C@H](N)C[C@H](N)C3)n2)cc1 [N-(4-carbamoyl-phenyl)-4,6-Bis-((3R,5S)-3,5-diamino-piperidin-1-yl)-[1,3,5]triazine-2-amine] |
| < 16 µg/mL | COc1nc(Nc2ccc(N(Cc3ccccc3)S(=O)(=O)c3ccc(C)cc3)c(O)c2)nc(N2CCCCC2)n1.Cl [N-Benzyl-N-{4-[4-((3R,5S)-3,5-diamino-piperidin-1-yl)-6-methoxy-[1,3,5]triazin-2-ylammino]-2-hydroxy-phenyl}-4-methyl-benzenesulfonamide] |
| < 64 µg/mL | N[C@@H]1C[C@H](N)CN(c2nc(Nc3ccc(NC(=O)Cc4ccccc4)c(O)c3)nc(N3C[C@H](N)C[C@H](N)C3)n2)C1 [N-(3-hydroxy-4-phenylacetylamino-phenyl)-4,6-Bis-((3R,5S)-3,5-diamino-piperidin-1-yl)-[1,3,5]triazine-2-amine] |

Same assay, conditions: Escherichia coli, 18 h, read-out: Potency (MIC)

| Structure (SMILES) | MIC |
| --- | --- |
| Cc1cccc(Nc2nc(N3C[C@H](N)C[C@H](N)C3)nc(N3C[C@H](N)C[C@H](N)C3)n2)n1 [N-(6-methyl-pyridin-2-yl)-4,6-Bis-((3R,5S)-3,5-diamino-piperidin-1-yl)-[1,3,5]triazine-2-amine] | > 64 µg/mL |
| CC(=O)c1ccc(Nc2nc(N3C[C@H](N)C[C@H](N)C3)nc(N3C[C@@H](N)C[C@H]3CO)n2)cc1 [1-{4-[4-((2S,4S)-4-Amino-2-hydroxymethyl-pyrrolidin-1-yl)-6-((3R,5S)-3,5-diamino-piperidin-1-yl)-[1,3,5]triazin-2-ylamino]-phenyl}-ethanone] | > 64 µg/mL |
| COc1ccc(O)c(C(=O)Nc2ccc(Nc3nc(N4C[C@H](N)C[C@H](N)C4)nc(N4C[C@H](N)C[C@H](N)C4)n3)cc2O)c1 [N-[3-hydroxy-4-(2-hydroxy-5-methoxy-benzoylamino)-phenyl]-4,6-Bis-((3R,5S)-3,5-diamino-piperidin-1-yl)-[1,3,5]triazine-2-amine] | < 16 µg/mL |
| N[C@@H]1C[C@H](N)CN(c2nc(Nc3cccc([N+](=O)[O-])c3)nc(N3C[C@H](N)C[C@H](N)C3)n2)C1 [N-(3-nitro-phenyl)-4,6-Bis-((3R,5S)-3,5-diamino-piperidin-1-yl)-[1,3,5]triazine-2-amine] | > 64 µg/mL |
| N[C@@H]1C[C@H](N)CN(c2nc(Nc3ccc(NC(=O)c4cc(OC(F)(F)F)ccc4O)c(O)c3)nc(N3C[C@H](N)C[C@H](N)C3)n2)C1 [N-[3-hydroxy-4-(2-hydroxy-5-trifluoromethoxy-benzoylamino)-phenyl]-4,6-Bis-((3R,5S)-3,5-diamino-piperidin-1-yl)-[1,3,5]triazine-2-amine] | < 16 µg/mL |
| N[C@@H]1C[C@H](N)CN(c2nc(Nc3ccc(C(=O)Nc4ccccc4F)c(O)c3)nc(N3C[C@H](N)C[C@H](N)C3)n2)C1 [N-[4-(2-fluoro-phenylcarbamoyl)-3-hydroxy-phenyl]-4,6-Bis-((3R,5S)-3,5-diamino-piperidin-1-yl)-[1,3,5]triazine-2-amine] | < 64 µg/mL |
| COc1ccc(NC(=O)c2cccc(C)c2O)c(Nc2nc(N3C[C@H](N)C[C@H](N)C3)nc(N3C[C@H](N)C[C@H](N)C3)n2)c1 [N-[2-(2-hydroxy-3-methyl-benzoylamino)-5-methoxy-phenyl]-4,6-Bis-((3R,5S)-3,5-diamino-piperidin-1-yl)-[1,3,5]triazine-2-amine] | > 64 µg/mL |
| Cc1cc(=O)oc2cc(Nc3nc(N(CCN)CCN)nc(N4C[C@H](N)C[C@H](N)C4)n3)ccc12 [7-[4-[Bis-(2-amino-ethyl)-amino]-6-((3R,5S)-3,5-diamino-piperidin-1-yl)-[1,3,5]triazin-2-ylamino]-4-methyl-chromen-2-one] | > 64 µg/mL |
| N[C@@H]1C[C@H](N)CN(c2nc(Nc3ccc(S(=O)(=O)Nc4ccc5cn[nH]c5c4)cc3)nc(N3C[C@@H](N)[C@@H](N)C3)n2)C1 [4-[4-((3R,5S)-3,5-Diamino-piperidin-1-yl)-6-((3R,4S)-3,4-diamino-pyrrolidin-1-yl)-[1,3,5]triazin-2-ylamino]-N-(1H-indazol-6-yl)-benzenesulfonamide] | > 64 µg/mL |
| Cc1ccc(C(=O)Nc2ccc(Nc3nc(N4C[C@H](N)C[C@H](N)C4)nc(N4C[C@H](N)C[C@H](N)C4)n3)c(C)c2)c(O)c1 [N-[4-(2-hydroxy-4-methyl-benzoylamino)-2-methyl-phenyl]-4,6-Bis-((3R,5S)-3,5-diamino-piperidin-1-yl)-[1,3,5]triazine-2-amine] | < 64 µg/mL |
| N[C@@H]1C[C@H](N)CN(c2nc(Nc3ccc(NS(=O)(=O)c4cc(Cl)cc(Cl)c4)c(O)c3)nc(N3C[C@H](N)C[C@H](N)C3)n2)C1 [N-[4-(3,5-dichloro-benzenesulfonylamino)-3-hydroxy-phenyl]-4,6-Bis-((3R,5S)-3,5-diamino-piperidin-1-yl)-[1,3,5]triazine-2-amine] | < 64 µg/mL |
| COc1ccc(C(=O)Nc2ccc(Nc3nc(N4C[C@H](N)C[C@H](N)C4)nc(N4C[C@H](N)C[C@H](N)C4)n3)cc2O)c(O)c1OC [N-[3-hydroxy-4-(2-hydroxy-3,4-dimethoxy-benzoylamino)-phenyl]-4,6-Bis-((3R,5S)-3,5-diamino-piperidin-1-yl)-[1,3,5]triazine-2-amine] | < 64 µg/mL |
| Cc1ccc(S(=O)(=O)N(Cc2ccccc2)c2ccc(Nc3nc(N4C[C@H](N)C[C@H](N)C4)nc(N4C[C@H](O)C[C@H]4CN)n3)cc2O)cc1 [N-{4-[4-((2S,4R)-2-Aminomethyl-4-hydroxy-pyrrolidin-1-yl)-6-((3R,5S)-3,5-diamino-piperidin-1-yl)-[1,3,5]triazin-2-ylamino]-2-hydroxy-phenyl}-N-benzyl-4-methyl-benzenesulfonamide] | < 64 µg/mL |
| N[C@@H]1C[C@H](N)CN(c2nc(Nc3ccc(C(=O)Nc4ccc(F)cc4)c(O)c3)nc(N3C[C@H](N)C[C@H](N)C3)n2)C1 [N-[4-(4-fluoro-phenylcarbamoyl)-3-hydroxy-phenyl]-4,6-Bis-((3R,5S)-3,5-diamino-piperidin-1-yl)-[1,3,5]triazine-2-amine] | < 16 µg/mL |
| N[C@@H]1C[C@H](N)CN(c2nc(Nc3ccc(NC(=O)c4ccc(N5Cc6ccccc6C5)cc4O)c(O)c3)nc(N3C[C@H](N)C[C@H](N)C3)n2)C1 [N-{4-[4-(1,3-dihydro-isoindol-2-yl)-2-hydroxy-benzoylamino]-3-hydroxy-phenyl}-4,6-Bis-((3R,5S)-3,5-diamino-piperidin-1-yl)-[1,3,5]triazine-2-amine] | < 64 µg/mL |
| N[C@@H]1C[C@H](N)CN(c2nc(Nc3ccccc3N3CCCCC3)nc(N3C[C@H](N)C[C@H](N)C3)n2)C1 [N-(2-piperidin-1-yl-phenyl)-4,6-Bis-((3R,5S)-3,5-diamino-piperidin-1-yl)-[1,3,5]triazine-2-amine] | > 64 µg/mL |
| NC[C@@H]1C[C@H](N)CN1c1nc(Nc2ccc(NC(=O)c3ccc4ccccc4c3O)cc2)nc(N2C[C@H](N)C[C@H](N)C2)n1 [1-Hydroxy-naphthalene-2-carboxylic acid {4-[4-((2S,4S)-4-amino-2-aminomethyl-pyrrolidin-1-yl)-6-((3R,5S)-3,5-diamino-piperidin-1-yl)-[1,3,5]triazine-2-ylamino]-phenyl}-amide] | < 16 µg/mL |

Same assay, conditions: MIC in E. coli or S. aureus; two-fold serial dilutions 64 to 0.5 μg/ml in duplicate; 18 hours of incubation at 35° C.

| Structure (SMILES) | Potency (MIC) |
| --- | --- |
| Cl.O=C(Oc1ccccc1)c1ccc(Nc2nc(N3CCCCC3)nc(N3CCCCC3)n2)cc1O [drawing 569, 4-[4,6-Bis-((3R,5S)-3,5-diamino-piperidin-1-yl)-[1,3,5]triazin-2-ylamino]-2-hydroxy-benzoic acidphenyl ester] | ++ (++ means MIC<16 μg/ml in E. coli or S. aureus) |
| NC[C@@H]1C[C@@H](O)CN1c1nc(Nc2ccc(S(=O)(=O)Nc3ccc4cn[nH]c4c3)cc2)nc(N2C[C@H](N)C[C@H](N)C2)n1 [4-[4-((2S,4R)-2-Aminomethyl-4-hydroxy-pyrrolidin-1-yl)-6-((3R,5S)-3,5-diamino-piperidin-1-yl)-[1,3,56]triazin-2-ylamino]-N-(1H-indazol-6-yl)-benzenesulfonamide] | − (− means MIC>64 μg/ml in E. coli or S. aureus) |
